Source: patent US20050148545A1, “Glucosamine organic acid adducts” (priority 2001, published 2005)

Experiment: Homogeneity of GOA: citric acid by HPLC in eight aliquots
Type: physicochemical
Procedure: Citric acid is determined quantitatively by dissolving a known quantity of glucosamine citrate in deionized water. The solution is filtered through a 0.22μ filter into a HPLC vial. The sample is analyzed by HPLC using a BioRad HPX-87H column (BioRad, City, State) and 0.01 N H2SO4 as the mobile phase.
A sample containing a blend comprising 20% by weight anhydrous citric acid and 80% glucosamine hydrochloride was blended by tumbling for five minutes. The blended sample was poured into a tray. Eight aliquots were collected from different areas of the tray. The aliquots were diluted in 0.01N H2SO4, and then analyzed for citric acid by the method described in Example 6. The peak areas were normalized by the aliquot weights, and then averaged. The relative standard deviation for the eight aliquots was 7.7%.
A sample of GOA from Example 2, which had been stored at room temperature in a flask for approximately eleven months, having 12.3% citric acid was analyzed similarly. Eight aliquots were taken from the sample. Citric acid was determined by HPLC as described above. The peak areas were normalized by the aliquot weights, and then averaged. The relative standard deviation for the eight aliquots was 1.9%.
The analytical precision measured from eight aliquots of pure citric acid was 1.8% relative.

| Structure (SMILES) | analytical precision measured from eight aliquots (pure citric acid, HPLC) [% relative] | degree of homogeneity (precision compared with pure citric acid) |
| --- | --- | --- |
| O=C(O)CC(O)(CC(=O)O)C(=O)O [citric acid] | 1.8 | – |
| N[C@H]1C(O)O[C@H](CO)[C@@H](O)[C@@H]1O.O=C(O)CC(O)(CC(=O)O)C(=O)O [GOA from Example 2, glucosamine citrate] | – | high degree of homogeneity |
